Experiment: Positive allosteric modulator pEC50 values and antagonist pIC50 values for each compound were then determined. […] Data analysis was carried out using a 4 parameter logistic nonlinear regression model with the XLFIT (IDBS) excel add-in10. 1-10 Examples 76-80 and 82-89 were tested in a slightly modified procedure. The points of modification and the alternate reagents, concentrations or equipment employed in these examples were: 1200 μg/ml hygromycin B; 2G418 not added; 3CELLBANKER 1; 410E6; 5 40 μl; 6 1 in 99; 7 20 μl; 8FDSS6000 (Hamamatsu Photonics); 9(480Ex, 540Em); 10Spotfire (TIBCO).As measured by the above in vitro assay, compound Examples 1 to 105 are positive allosteric modulators of mAChR M1 displaying the pEC50 values for positive allosteric modulation given in Table 2.
Details: 0.5 h

Row | Structure (SMILES) | EC50 [nM]
1 | COc1ccc(Cn2cc(C(=O)NC3CCOC[C@@H]3O)c3nccc(C)c32)cc1 (stereo partly specified) | 10
2 | COc1ccc(Cn2cc(C(=O)NC3CCOC[C@@H]3O)c3nccc(C)c32)cc1F (stereo partly specified) | 12.6
3 | COc1cc(Cn2cc(C(=O)NC3CCOC[C@@H]3O)c3nccc(C)c32)ccn1 (stereo partly specified) | 50.1
4 | COc1ccc(Cn2cc(C(=O)NC3CCOC[C@@H]3O)c3nccc(Cl)c32)cc1 (stereo partly specified) | 12.6
5 | O=C(NC1CCC(F)(F)C[C@H]1O)c1cn(Cc2ccc(F)cc2)c2cccnc12 (stereo partly specified) | 794
6 | Cc1ccnc2c(C(=O)NC3CCOC[C@@H]3O)cn(Cc3ccc(F)cc3)c12 (stereo partly specified) | 15.8

Source: ChEMBL document CHEMBL5725623, “4-azaindole derivatives” (2018)
